From US11180528B2 (priority 2018, dated 2021)
Values after ≈ are worked out from the molar mass of the structure shown. “Also recorded” adds a separate entry of the source. Like-named read-outs stand apart in the source and are kept apart here. Ends that are not written are not given here.

Experiments:
F. tularensis LVS [1] = system: F. tularensis LVS
G. mellonella larvae = conditions: in vivo
F. tularensis LVS [2] = system: F. tularensis LVS; remark: listed apart in the source
F. tularensis LVS [3] = conditions: mouse, in vivo
[4] = system: F. tularensis tularensis SchuS4
F. tularensis LVS [5] = conditions: mouse, in vivo; cited from earlier work
[6] = system: F. tularensis tularensis SchuS4; remark: listed apart in the source
[7] = system: A549 human lung epithelial cells
E. coli LPS = type: binding
F. tularensis LVS LPS = type: binding, Francisella tularensis subsp. holarctica
F. tularensis LVS [8] = system: F. tularensis LVS; set-up: species or system Galleria mellonella; conditions: in vivo
F. tularensis LVS [9] = type: cell-based, Francisella tularensis subsp. holarctica
F. tularensis LVS [10] = type: cell-based, Francisella tularensis subsp. holarctica; remark: listed apart in the source

Row | Molecule | EC50 (F. tularensis LVS [1]; 3 h) | EC50 (F. tularensis NIH B38; 3 h) | MIC / inhibitory activity in broth (F. tularensis LVS [2]) | EC50 (95% CI) [μg/ml] (F. tularensis LVS [1]) | EC50 (95% CI) [μg/ml] (F. tularensis NIH B38) | EC50 [4] | EC50 (95% CI) (F. tularensis LVS [1]; 3 h) | MIC [6] | further results
1 | KFRNWFSQHWKKWKQKLKNTWA [GATR-5] | 260 nM | 650 nM | – | – | – | – | – | – | survival of larvae (toxicity) (G. mellonella larvae): 30%
2 | KTRNWFSQHFKKVKQKLKNTFA [GATR-2] | 860 nM | 3900 nM | inactive | 2.4 (1.5-3.7) μg/ml | 11 (7.7-15) μg/ml | – | – | – | –
3 | CC[C@H](C)[C@H](NC(=O)[C@H](CCCCN)NC(=O)[C@H](CCC(=O)O)NC(=O)[C@H](CCCCN)NC(=O)[C@H](CO)NC(=O)[C@H](CCCCN)NC(=O)[C@H](CCCNC(=N)N)NC(=O)[C@H](Cc1ccccc1)NC(=O)[C@H](Cc1ccccc1)NC(=O)[C@H](CC(=O)O)NC(=O)CNC(=O)[C@H](CC(C)C)NC(=O)[C@@H](N)CC(C)C)C(=O)NCC(=O)N[C@@H](CCCCN)C(=O)N[C@@H](CCC(=O)O)C(=O)N[C@@H](Cc1ccccc1)C(=O)N[C@@H](CCCCN)C(=O)N[C@@H](CCCNC(=N)N)C(=O)N[C@H](C(=O)N[C@H](C(=O)N[C@@H](CCC(N)=O)C(=O)N[C@@H](CCCNC(=N)N)C(=O)N[C@H](C(=O)N[C@@H](CCCCN)C(=O)N[C@@H](CC(=O)O)C(=O)N[C@@H](Cc1ccccc1)C(=O)N[C@@H](CC(C)C)C(=O)N[C@@H](CCCNC(=N)N)C(=O)N[C@@H](CC(N)=O)C(=O)N[C@@H](CC(C)C)C(=O)N[C@H](C(=O)N1CCC[C@H]1C(=O)N[C@@H](CCCNC(=N)N)C(=O)N[C@H](C(=O)N[C@@H](CCC(=O)O)C(=O)N[C@@H](CO)C(=O)O)[C@@H](C)O)C(C)C)[C@@H](C)CC)C(C)C)[C@@H](C)CC [LL-37] | 47 nM | 28 nM | – | 0.21 (0.14-0.31) μg/ml | 0.13 (0.076-0.21) μg/ml | 125 nM | – | – | EC50 (95% CI) (F. tularensis LVS [1]): 0.209 µg/mL (≈ 0.0465 µM); severity of signs of disease (health scores) (F. tularensis LVS [3]): nor did these peptides lessen signs of disease; EC50 (95% CI) [μg/ml] [4]: 0.562 (0.195 to 1.61) μg/ml; mean time till death and survival (F. tularensis LVS [5]): extended mean time till death but did not increase survival; also recorded: significantly extended mean time to death, but did not ultimately rescue any mice
4 | FSTKTRNWFSEHFKKVKEKLKDTFA [Apo5, reference compound] | – | – | – | – | – | – | ~6 µg/mL | – | EC50 (95% CI) (F. tularensis NIH B38; 3 h): ~16 µg/mL
5 | KFRNWFSQHFKKFKQKLKNTFA [GATR-3] | 190 nM | 280 nM | – | – | – | 10000 nM | – | >83.3 µg/mL | –
6 | NPKTRNWFSEHFKKVKEKLKDTFA [GATR-4] | 3700 nM | – | inactive | – | – | – | 11.0 µg/mL | – | EC50 [μM] (F. tularensis NIH B38): Not active
7 | RWRNWWSQRWRRWRQRLRNTWA [GATR-7] | 320 nM | 530 nM | – | – | – | 7470 nM | – | 41.7 µg/mL | inhibition (F. tularensis LVS [2]; 41.5 μg/ml): 85%; suppression of cell proliferation [7]: some statistically significant suppression of cell proliferation; death of larvae (toxicity) (G. mellonella larvae): not found to have significant death
8 | KFRNWFSEHFKKFKEKLKDTFA [GATR-1] | 260 nM | 5620 nM | inactive | 0.76 (0.54-1.1) μg/ml | 16 (9.5-27) μg/ml | – | – | – | –
9 | KFRNWFSQHWRRWRQRLRNTWA [GATR-6] | 290 nM | 51 nM | – | – | – | 10400 nM | – | >83.3 µg/mL | mean time till death (MTD) (F. tularensis LVS [3]): 6 days
10 | KTRNWFSEHFKKVKEKLKDTFA [Apo6] | 2500 nM | 5890 nM | no observable MIC | 6.8 (5.9-7.8) μg/ml | 16 (8.6-31) μg/ml | – | ~6 µg/mL | – | LPS binding (E. coli LPS): did not bind; LPS binding (F. tularensis LVS LPS): does not significantly bind; EC50 (95% CI) (F. tularensis LVS [1]): 6.82 µg/mL; survival of infected larvae (F. tularensis LVS [8]): 60%; EC50 (95% CI) (F. tularensis NIH B38): 16.3 µg/mL; EC50 (95% CI) (F. tularensis NIH B38; 3 h): ~16 µg/mL; efficacy in murine studies (F. tularensis LVS [3]): not reliably effective; dissipation of membrane potential (F. tularensis LVS [9]): dissipated the membrane potential; EC50 [μM] [4]: Not active; pore formation (change in RFU) (F. tularensis LVS [10]): significant pore formation; also recorded: significant membrane disruption
